Results as given in ChEMBL document CHEMBL1817568, “Novel hybrids of fluconazole and furanones: design, synthesis and antifungal activity” (2011).
≈ marks a conversion by molar mass, not a printed value. Calls of active or inactive are those of the source. The calls are words filed in the database; no cut-off is given here.

Tests used:
[1] = tested on: Candida tropicalis; experiment: Antifungal activity against Candida tropicalis ATCC 750 by broth dilution method; assay type: functional
[2] = tested on: Candida albicans; experiment: Antifungal activity against Candida albicans ATCC 24433 by broth dilution method; assay type: functional
[3] = tested on: Pichia kudriavzevii; experiment: Antifungal activity against Candida krusei ATCC 6258 at 4 ug/ml by broth dilution method; assay type: functional, organism-based
[4] = tested on: Nakaseomyces glabratus; experiment: Antifungal activity against Candida glabrata ATCC 90030 by broth dilution method; assay type: functional
[5] = tested on: Cryptococcus neoformans; experiment: Antifungal activity against Cryptococcus neoformans ATCC 34664 by broth dilution method; assay type: functional
[6] = tested on: Aspergillus niger; experiment: Antifungal activity against Aspergillus niger ATCC 16404 at 4 ug/ml by broth dilution method; assay type: functional, organism-based
[7] = tested on: Fusarium proliferatum; experiment: Antifungal activity against Fusarium proliferatum ATCC 10052 at 4 ug/ml by broth dilution method; assay type: functional, organism-based
[8] = tested on: Aspergillus fumigatus; experiment: Antifungal activity against Aspergillus fumigatus ATCC 46645 at 4 ug/ml by broth dilution method; assay type: functional, organism-based
[9] = tested on: Aspergillus fumigatus; experiment: Antifungal activity against Aspergillus fumigatus ATCC 46645 at 8 ug/ml by broth dilution method; assay type: functional, organism-based
[10] = tested on: Aspergillus niger; experiment: Antifungal activity against Aspergillus niger ATCC 16404 at 8 ug/ml by broth dilution method; assay type: functional, organism-based
[11] = tested on: Fusarium proliferatum; experiment: Antifungal activity against Fusarium proliferatum ATCC 10052 at 8 ug/ml by broth dilution method; assay type: functional, organism-based
[12] = tested on: Pichia kudriavzevii; experiment: Antifungal activity against Candida krusei ATCC 6258 at 16 ug/ml by broth dilution method; assay type: functional, organism-based
[13] = tested on: Cryptococcus neoformans; experiment: Antifungal activity against Cryptococcus neoformans ATCC 34664 at 4 ug/ml by broth dilution method; assay type: functional, organism-based
[14] = tested on: Candida tropicalis; experiment: Antifungal activity against Candida tropicalis ATCC 750 at 4 ug/ml by broth dilution method; assay type: functional, organism-based
[15] = tested on: Nakaseomyces glabratus; experiment: Antifungal activity against Candida glabrata ATCC 90030 at 4 ug/ml by broth dilution method; assay type: functional, organism-based
[16] = tested on: Candida albicans; experiment: Antifungal activity against Candida albicans ATCC 24433 at 4 ug/ml by broth dilution method; assay type: functional, organism-based
[17] = tested on: Pichia kudriavzevii; experiment: Antifungal activity against Candida krusei ATCC 6258 at 8 ug/ml by broth dilution method; assay type: functional, organism-based
[18] = tested on: Nakaseomyces glabratus; experiment: Antifungal activity against Candida glabrata ATCC 90030 at 8 ug/ml by broth dilution method; assay type: functional, organism-based
[19] = tested on: Cryptococcus neoformans; experiment: Antifungal activity against Cryptococcus neoformans ATCC 34664 at 8 ug/ml by broth dilution method; assay type: functional, organism-based
[20] = tested on: Candida albicans; experiment: Antifungal activity against Candida albicans ATCC 24433 at 8 ug/ml by broth dilution method; assay type: functional, organism-based
[21] = tested on: Pichia kudriavzevii; experiment: Antifungal activity against Candida krusei ATCC 6258 by broth dilution method; assay type: functional
[22] = tested on: Fusarium proliferatum; experiment: Antifungal activity against Fusarium proliferatum ATCC 10052 at 128 ug/ml by broth dilution method; assay type: functional, organism-based
[23] = tested on: Aspergillus fumigatus; experiment: Antifungal activity against Aspergillus fumigatus ATCC 46645 at 128 ug/ml by broth dilution method; assay type: functional, organism-based
[24] = tested on: Aspergillus niger; experiment: Antifungal activity against Aspergillus niger ATCC 16404 at 128 ug/ml by broth dilution method; assay type: functional, organism-based

| Structure (SMILES) | MIC50 [1] [µg/mL] | MIC50 [2] [µg/mL] | Activity [3] | MIC50 [4] [µg/mL] | MIC50 [5] [µg/mL] | Activity [6] | Activity [7] | Activity [8] | Activity [9] | Activity [10] | Activity [11] | Activity [13] | Activity [14] | Activity [15] | Activity [16] | also measured |
| --- | --- | --- | --- | --- | --- | --- | --- | --- | --- | --- | --- | --- | --- | --- | --- | --- |
| Cc1ccc(C2=C(c3ccc(OCC(O)(Cn4cncn4)c4ccc(F)cc4F)cc3)C(=O)OC2)cc1 (racemic) | 2 (≈ 3.97 µM) | 0.5 (≈ 0.993 µM) | inactive | 1 (≈ 1.99 µM) | 2 (≈ 3.97 µM) | inactive | inactive | inactive |  |  |  |  |  |  |  |  |
| COc1cc(C2=C(c3ccc(F)cc3)COC2=O)ccc1OCC(O)(Cn1cncn1)c1ccc(F)cc1F (racemic) | 2 (≈ 3.72 µM) | 0.5 (≈ 0.93 µM) |  | 0.5 (≈ 0.93 µM) | 2 (≈ 3.72 µM) |  |  |  | inactive | inactive | inactive |  |  |  |  | Activity [12]: inactive |
| O=C1OC(c2ccccc2)=N/C1=C\c1ccc(OCC(O)(Cn2cncn2)c2ccc(F)cc2F)cc1 (racemic) |  | 4 (≈ 7.96 µM) | inactive | 4 (≈ 7.96 µM) |  | inactive | inactive | inactive |  |  |  | inactive | inactive |  |  |  |
| O=C1O/C(=C\c2ccc(OCC(O)(Cn3cncn3)c3ccc(F)cc3F)cc2)C(c2ccc(F)cc2F)=C1c1ccc(Cl)c(Cl)c1 (racemic) |  |  | inactive |  |  | inactive | inactive | inactive |  |  |  | inactive | inactive | inactive | inactive |  |
| COc1ccc(C2=C(c3ccc(OCC(O)(Cn4cncn4)c4ccc(F)cc4F)cc3)C(=O)OC2)cc1 (racemic) | 4 (≈ 7.7 µM) | 1 (≈ 1.92 µM) |  | 1 (≈ 1.92 µM) | 2 (≈ 3.85 µM) |  |  |  | inactive | inactive | inactive |  |  |  |  | Activity [17]: inactive |
| O=C1OCC(c2ccc(F)cc2F)=C1c1ccc(Cl)c(Cl)c1 |  |  | inactive |  |  | inactive | inactive | inactive |  |  |  | inactive | inactive | inactive | inactive |  |
| O=C1OCC(c2ccc(F)cc2F)=C1c1ccc(Cl)cc1 |  |  |  |  |  |  |  |  | inactive | inactive | inactive |  |  |  |  | Activity [18]: inactive; Activity [19]: inactive; Activity [20]: inactive; Activity [17]: inactive |
| O=C1O/C(=C\c2ccc(OCC(O)(Cn3cncn3)c3ccc(F)cc3F)cc2)C(c2ccc(F)cc2F)=C1c1ccc(Cl)cc1 (racemic) |  |  | inactive |  |  | inactive | inactive | inactive |  |  |  | inactive | inactive | inactive | inactive |  |
| O=C1OCC(c2ccc(F)cc2)=C1c1ccc(OCC(O)(Cn2cncn2)c2ccc(F)cc2F)cc1 (racemic) | 1 (≈ 1.97 µM) | 0.25 (≈ 0.493 µM) |  | 0.5 (≈ 0.985 µM) | 1 (≈ 1.97 µM) |  |  |  | inactive | inactive | inactive |  |  |  |  | MIC50 [21]: 8 µg/mL (≈ 15.8 µM) |
| COc1ccc(/C=C2\N=C(c3ccccc3)OC2=O)cc1OCC(O)(Cn1cncn1)c1ccc(F)cc1F (racemic) |  |  | inactive |  |  | inactive | inactive | inactive |  |  |  | inactive | inactive | inactive | inactive |  |
| CC1OC(=O)C(c2ccc(OCC(O)(Cn3cncn3)c3ccc(F)cc3F)cc2)=C1c1ccc(F)cc1F (racemic) | 8 (≈ 14.8 µM) | 1 (≈ 1.85 µM) |  | 1 (≈ 1.85 µM) | 4 (≈ 7.41 µM) |  |  |  | inactive | inactive |  |  |  |  |  | Activity [17]: inactive |
| O=C1OCC(c2ccc(F)cc2F)=C1c1ccc(OCC(O)(Cn2cncn2)c2ccc(F)cc2F)cc1 (racemic) | 2 (≈ 3.81 µM) | 0.5 (≈ 0.952 µM) |  | 0.5 (≈ 0.952 µM) | 2 (≈ 3.81 µM) |  |  |  | inactive | inactive | inactive |  |  |  |  | MIC50 [21]: 8 µg/mL (≈ 15.2 µM) |
| COc1cc(C=O)ccc1OCC(O)(Cn1cncn1)c1ccc(F)cc1F (racemic) | 8 (≈ 20.5 µM) | 0.5 (≈ 1.28 µM) |  | 1 (≈ 2.57 µM) | 16 (≈ 41.1 µM) |  |  |  |  |  |  |  |  |  |  | Activity [22]: inactive; Activity [23]: inactive; Activity [24]: inactive; MIC50 [21]: 128 µg/mL (≈ 329 µM) |
